Data published in ChEMBL document CHEMBL5338815 (J Med Chem, 2023).
Activity calls are given as the source filed them. The calls are words filed in the database; no cut-off is given here.

What was measured:
[1] = target: T1, Histone-lysine N-methyltransferase EHMT2 (Homo sapiens) (UniProt Q96KQ7); experiment: Binding affinity to G9a in human MDA-MB-231 cells assessed as protein stabilization at 37 to 41.7 degC at 10 uM incubated for 15 hrs in presence of G9a antibody by CETSA; type: cell-based
T1 sequence (whole entry): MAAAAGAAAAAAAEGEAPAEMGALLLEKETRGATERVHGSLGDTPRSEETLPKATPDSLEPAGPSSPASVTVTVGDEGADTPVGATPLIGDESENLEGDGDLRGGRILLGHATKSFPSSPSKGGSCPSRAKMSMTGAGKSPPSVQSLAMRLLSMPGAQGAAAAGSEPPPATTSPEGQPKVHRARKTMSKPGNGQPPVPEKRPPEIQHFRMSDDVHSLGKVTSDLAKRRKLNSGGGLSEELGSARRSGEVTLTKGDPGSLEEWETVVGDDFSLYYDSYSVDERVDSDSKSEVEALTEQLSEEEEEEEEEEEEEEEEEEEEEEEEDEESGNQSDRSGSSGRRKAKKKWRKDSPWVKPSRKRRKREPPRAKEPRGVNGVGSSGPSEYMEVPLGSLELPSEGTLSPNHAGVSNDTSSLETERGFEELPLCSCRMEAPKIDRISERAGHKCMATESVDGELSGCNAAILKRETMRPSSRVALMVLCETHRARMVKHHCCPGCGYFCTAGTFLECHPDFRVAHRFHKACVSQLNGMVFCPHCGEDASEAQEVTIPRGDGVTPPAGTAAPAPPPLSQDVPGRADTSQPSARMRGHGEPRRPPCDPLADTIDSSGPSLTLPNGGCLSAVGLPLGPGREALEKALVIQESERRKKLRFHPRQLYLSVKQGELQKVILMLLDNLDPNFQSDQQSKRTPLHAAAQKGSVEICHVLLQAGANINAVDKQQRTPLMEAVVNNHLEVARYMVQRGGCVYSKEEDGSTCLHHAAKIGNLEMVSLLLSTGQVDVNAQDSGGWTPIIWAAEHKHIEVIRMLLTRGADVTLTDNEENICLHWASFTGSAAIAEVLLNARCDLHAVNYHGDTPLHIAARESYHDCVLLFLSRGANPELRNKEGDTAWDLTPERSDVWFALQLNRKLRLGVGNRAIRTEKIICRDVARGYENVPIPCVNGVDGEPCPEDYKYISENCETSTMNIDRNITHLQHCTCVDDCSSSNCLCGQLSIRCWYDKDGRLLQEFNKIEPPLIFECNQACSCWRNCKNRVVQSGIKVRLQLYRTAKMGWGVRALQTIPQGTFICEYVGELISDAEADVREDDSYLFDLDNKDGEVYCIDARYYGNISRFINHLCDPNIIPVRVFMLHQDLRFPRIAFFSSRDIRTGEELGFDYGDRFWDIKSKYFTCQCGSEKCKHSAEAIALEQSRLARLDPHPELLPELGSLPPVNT

[2] = target: Protein arginine N-methyltransferase 5 (Homo sapiens, UniProt O14744); experiment: Inhibition of PRMT5 (unknown origin)
Sequence of Protein arginine N-methyltransferase 5 (O14744 whole entry): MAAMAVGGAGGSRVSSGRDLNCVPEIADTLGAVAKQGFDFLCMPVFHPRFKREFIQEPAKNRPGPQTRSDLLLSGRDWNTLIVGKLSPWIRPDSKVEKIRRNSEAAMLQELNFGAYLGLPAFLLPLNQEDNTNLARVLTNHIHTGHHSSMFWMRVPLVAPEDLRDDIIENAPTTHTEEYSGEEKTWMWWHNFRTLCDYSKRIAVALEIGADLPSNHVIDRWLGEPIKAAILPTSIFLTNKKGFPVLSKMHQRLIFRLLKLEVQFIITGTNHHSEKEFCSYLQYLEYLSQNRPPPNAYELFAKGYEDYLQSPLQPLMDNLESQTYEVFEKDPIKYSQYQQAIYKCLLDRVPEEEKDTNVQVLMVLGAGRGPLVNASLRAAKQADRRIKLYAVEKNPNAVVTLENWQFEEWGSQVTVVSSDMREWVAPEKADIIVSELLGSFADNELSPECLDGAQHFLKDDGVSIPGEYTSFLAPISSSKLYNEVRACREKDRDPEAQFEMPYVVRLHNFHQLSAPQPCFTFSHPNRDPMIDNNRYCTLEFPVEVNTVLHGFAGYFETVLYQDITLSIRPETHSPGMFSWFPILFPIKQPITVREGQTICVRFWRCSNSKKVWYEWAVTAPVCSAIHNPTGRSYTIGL

[3] = target: Histone-lysine N-methyltransferase EZH2 (Homo sapiens, UniProt Q15910); experiment: Inhibition of EZH2 (unknown origin)
Sequence of Histone-lysine N-methyltransferase EZH2 (Q15910 whole entry): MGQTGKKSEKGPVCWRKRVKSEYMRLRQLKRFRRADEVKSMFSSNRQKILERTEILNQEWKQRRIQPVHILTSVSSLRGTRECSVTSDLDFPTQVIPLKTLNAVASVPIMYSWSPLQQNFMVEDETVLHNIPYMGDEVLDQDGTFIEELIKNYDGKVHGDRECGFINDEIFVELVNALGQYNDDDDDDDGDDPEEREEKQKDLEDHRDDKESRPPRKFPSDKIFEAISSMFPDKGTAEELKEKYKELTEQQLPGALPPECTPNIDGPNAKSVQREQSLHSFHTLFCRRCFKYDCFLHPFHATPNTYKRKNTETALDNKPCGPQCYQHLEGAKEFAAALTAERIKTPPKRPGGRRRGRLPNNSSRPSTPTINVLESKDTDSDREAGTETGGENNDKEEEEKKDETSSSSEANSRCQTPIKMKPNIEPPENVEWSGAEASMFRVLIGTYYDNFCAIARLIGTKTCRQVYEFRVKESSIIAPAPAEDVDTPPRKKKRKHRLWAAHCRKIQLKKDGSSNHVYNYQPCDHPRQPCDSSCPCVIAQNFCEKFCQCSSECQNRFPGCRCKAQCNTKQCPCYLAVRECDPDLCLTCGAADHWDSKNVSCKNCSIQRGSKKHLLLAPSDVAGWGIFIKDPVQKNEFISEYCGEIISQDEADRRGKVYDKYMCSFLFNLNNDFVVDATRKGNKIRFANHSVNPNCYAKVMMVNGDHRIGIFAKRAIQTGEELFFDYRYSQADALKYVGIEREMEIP

[4] = target: DNA (cytosine-5)-methyltransferase 1 (Homo sapiens, UniProt P26358); experiment: Inhibition of DNMT1 (unknown origin)
Sequence of DNA (cytosine-5)-methyltransferase 1 (P26358 whole entry): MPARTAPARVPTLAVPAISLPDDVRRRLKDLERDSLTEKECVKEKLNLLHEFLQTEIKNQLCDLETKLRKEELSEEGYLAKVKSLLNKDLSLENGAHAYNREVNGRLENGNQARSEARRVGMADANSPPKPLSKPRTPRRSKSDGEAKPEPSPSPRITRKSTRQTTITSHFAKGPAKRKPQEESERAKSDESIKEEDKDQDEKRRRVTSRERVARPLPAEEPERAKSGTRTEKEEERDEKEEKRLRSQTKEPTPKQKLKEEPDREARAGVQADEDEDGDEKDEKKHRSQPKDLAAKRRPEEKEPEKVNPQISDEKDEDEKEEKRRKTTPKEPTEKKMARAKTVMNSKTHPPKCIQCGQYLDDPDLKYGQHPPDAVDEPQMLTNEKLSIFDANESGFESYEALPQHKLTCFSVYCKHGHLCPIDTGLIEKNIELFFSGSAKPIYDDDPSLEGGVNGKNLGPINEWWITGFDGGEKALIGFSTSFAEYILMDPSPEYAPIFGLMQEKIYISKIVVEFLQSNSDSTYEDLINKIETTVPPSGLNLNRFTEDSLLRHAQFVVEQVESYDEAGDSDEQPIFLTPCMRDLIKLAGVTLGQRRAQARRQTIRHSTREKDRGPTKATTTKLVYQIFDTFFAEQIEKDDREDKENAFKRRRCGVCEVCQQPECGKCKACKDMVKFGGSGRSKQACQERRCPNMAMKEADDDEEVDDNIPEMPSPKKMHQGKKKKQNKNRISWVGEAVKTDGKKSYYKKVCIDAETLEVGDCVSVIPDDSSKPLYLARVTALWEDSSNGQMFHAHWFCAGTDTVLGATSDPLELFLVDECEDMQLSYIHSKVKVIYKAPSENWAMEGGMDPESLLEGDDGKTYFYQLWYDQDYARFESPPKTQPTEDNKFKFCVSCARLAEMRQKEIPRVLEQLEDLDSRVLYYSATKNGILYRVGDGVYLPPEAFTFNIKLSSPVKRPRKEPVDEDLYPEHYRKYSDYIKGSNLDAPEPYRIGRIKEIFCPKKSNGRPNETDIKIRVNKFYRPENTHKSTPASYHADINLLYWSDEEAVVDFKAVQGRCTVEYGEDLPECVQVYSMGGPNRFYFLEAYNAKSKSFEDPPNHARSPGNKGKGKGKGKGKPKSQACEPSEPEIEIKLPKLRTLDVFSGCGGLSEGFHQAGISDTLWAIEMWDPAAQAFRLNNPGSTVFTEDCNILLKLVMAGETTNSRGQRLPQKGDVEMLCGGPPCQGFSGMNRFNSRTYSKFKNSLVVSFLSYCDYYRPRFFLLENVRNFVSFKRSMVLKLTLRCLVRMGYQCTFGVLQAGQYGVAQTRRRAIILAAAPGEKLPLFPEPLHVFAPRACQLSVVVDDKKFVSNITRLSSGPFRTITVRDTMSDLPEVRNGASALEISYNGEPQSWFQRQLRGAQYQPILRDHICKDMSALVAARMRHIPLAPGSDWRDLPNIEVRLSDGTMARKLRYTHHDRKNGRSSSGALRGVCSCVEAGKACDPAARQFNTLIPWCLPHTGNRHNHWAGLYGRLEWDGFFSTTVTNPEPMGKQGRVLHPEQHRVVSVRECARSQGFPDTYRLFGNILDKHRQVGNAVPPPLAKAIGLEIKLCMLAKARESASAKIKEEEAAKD

[5] = target: T2, Histone-lysine N-methyltransferase EHMT1 (Homo sapiens) (UniProt Q9H9B1); experiment: Covalent inhibition of recombinant GLP (unknown origin) assessed as adduct formation intensity by measuring mass after 12 hrs by mass spectrometric analysis
T2 sequence (whole entry): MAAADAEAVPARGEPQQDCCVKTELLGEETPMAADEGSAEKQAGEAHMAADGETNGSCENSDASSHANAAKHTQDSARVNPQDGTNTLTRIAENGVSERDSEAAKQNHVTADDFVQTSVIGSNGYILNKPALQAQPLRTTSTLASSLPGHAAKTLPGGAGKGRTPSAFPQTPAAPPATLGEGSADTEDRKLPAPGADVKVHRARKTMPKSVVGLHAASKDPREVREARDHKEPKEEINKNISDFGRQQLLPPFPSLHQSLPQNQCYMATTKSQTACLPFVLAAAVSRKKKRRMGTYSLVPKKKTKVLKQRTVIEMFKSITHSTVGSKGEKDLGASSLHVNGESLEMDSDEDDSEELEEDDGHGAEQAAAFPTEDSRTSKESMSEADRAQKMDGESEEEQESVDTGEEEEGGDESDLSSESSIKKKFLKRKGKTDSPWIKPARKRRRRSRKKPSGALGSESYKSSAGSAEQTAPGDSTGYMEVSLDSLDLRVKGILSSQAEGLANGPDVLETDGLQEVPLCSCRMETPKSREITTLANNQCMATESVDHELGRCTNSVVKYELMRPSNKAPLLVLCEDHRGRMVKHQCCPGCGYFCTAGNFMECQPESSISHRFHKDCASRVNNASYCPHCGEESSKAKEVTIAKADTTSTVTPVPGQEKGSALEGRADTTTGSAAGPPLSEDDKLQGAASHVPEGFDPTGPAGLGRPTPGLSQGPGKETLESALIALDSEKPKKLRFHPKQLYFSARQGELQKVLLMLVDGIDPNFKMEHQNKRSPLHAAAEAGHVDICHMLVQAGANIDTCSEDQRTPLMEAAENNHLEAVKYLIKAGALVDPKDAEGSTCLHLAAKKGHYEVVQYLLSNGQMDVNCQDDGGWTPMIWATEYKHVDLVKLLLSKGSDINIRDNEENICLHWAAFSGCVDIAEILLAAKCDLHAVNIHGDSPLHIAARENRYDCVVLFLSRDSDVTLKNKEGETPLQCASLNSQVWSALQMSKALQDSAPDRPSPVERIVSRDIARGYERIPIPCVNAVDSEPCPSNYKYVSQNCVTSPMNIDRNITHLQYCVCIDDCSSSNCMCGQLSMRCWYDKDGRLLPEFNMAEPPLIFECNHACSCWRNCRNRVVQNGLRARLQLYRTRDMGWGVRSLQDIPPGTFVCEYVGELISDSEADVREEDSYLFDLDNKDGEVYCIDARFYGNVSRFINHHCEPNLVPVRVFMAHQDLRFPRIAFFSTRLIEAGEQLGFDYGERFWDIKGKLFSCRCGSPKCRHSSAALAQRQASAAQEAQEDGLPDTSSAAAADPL

[6] = target: T2, Histone-lysine N-methyltransferase EHMT1 (Homo sapiens); experiment: Covalent inhibition of recombinant GLP (unknown origin) assessed as adduct formation intensity by mass spectrometric analysis; conditions: time <= 16.0 hrs, TDE = time-dependent effect
[7] = system: MDA-MB-231; experiment: Reduction in H3K9me2 level in human MDA-MB-231 cells at 10 uM by Western blot analysis; type: functional, cell-based; conditions: time 24-96 hrs, TDE = time-dependent effect
[8] = system: MDA-MB-231; experiment: Inhibition of colony formation in human MDA-MB-231 cells at […] incubated for 14 days drug medium changed for every 2 days by crystal violet staining based analysis; type: cell-based; conditions: dose 2.5 µM, time 14.0 day
[9] = system: PANC-1; experiment: In vivo antitumor activity against human PANC-1 cells xenografted in Balb/c mouse model assessed as tumor growth inhibition at 2 mg/kg, ip treated for 22 days relative to control; type: functional; conditions: PANC-1, 528 h, time 22 day, read-out: TGI

With `C=CC(=O)N(C)c1nc(NC2CCN(C)CC2)c2cc(OC)c(OCCCN3CCCC3)cc2n1` the Activity [1] was “Active”, the IC50 [2] was over 20 µM and the IC50 [3] was over 20 µM. For the same molecule, the IC50 [4] was over 20 µM, the Activity [5] was 53800 Da and the inhibition [6] was “Tde”. For the same molecule, the inhibition [7] was “Tde”, the inhibition [8] was “Active” and the inhibition in vivo at 2 mg/kg [9] was 52.2%.
